Data set [1] concerns Erysiphe graminis f.sp. hordei. Put plainly: Erysiphe test (barley)/protective. The note with it: Blumeria graminis, 168 h, protective, application rate 500 g/ha, evaluation 7 days after inoculation, read-out: efficacy. In kind it is in vivo. The procedure:
Erysiphe test (barley)/protective [table] To produce a suitable preparation of active compound, 1 part by weight of active compound is mixed with the stated amounts of solvent and emulsifier, and the concentrate is diluted with water to the desired concentration. To test for protective activity, young plants are sprayed with the preparation of active compound at the stated application rate. After the spray coating has dried on, the plants are dusted with spores of Erysiphe graminis f.sp. hordei. The plants are placed in a greenhouse at a temperature of about 20° C. and a relative atmospheric humidity of about 80% to promote the development of mildew pustules.

The subject of a further data set is Phytophthora infestans. Put plainly: whole plant or invertebrate. In kind it is in vivo. The settings on record: in Solanum lycopersicum, 72 h, read-out: efficacy.
The next data set concerns Sphaerotheca fuliginea. As to the kind of experiment: Sphaerotheca test (cucumber)/protective. The note with it: Podosphaera fuliginea, 168 h, protective, application rate 100 g/ha, evaluation 7 days after inoculation, read-out: efficacy. In kind it is in vivo. The procedure:
(§1) Sphaerotheca test (cucumber)/protective [table] To produce a suitable preparation of active compound, 1 part by weight of active compound is mixed with the stated amounts of solvent and emulsifier, and the concentrate is diluted with water to the desired concentration. To test for protective activity, young plants are sprayed with the preparation of active compound at the stated application rate. After the spray coating has dried on, the plants are inoculated with an aqueous spore suspension of Sphaerotheca fuliginea. The plants are then placed in a greenhouse at about 23° C. and about 70% relative atmospheric humidity.

The test system of data set [2] is apple scab pathogen Venturia inaequalis. Put plainly: Venturia test (apple)/protective. In kind it is in vivo. The settings on record: 240 h, protective, application rate 100 g/ha, evaluation 10 days after inoculation, read-out: efficacy. How it is done: Venturia test (apple)/protective […] To produce a suitable preparation of active compound, 1 part by weight of active compound is mixed with the stated amounts of solvent and emulsifier, and the concentrate is diluted with water to the desired concentration. To test for protective activity, young plants are sprayed with the preparation of active compound at the stated application rate. After the spray coating has dried on, the plants are inoculated with an aqueous conidia suspension of the apple scab pathogen Venturia inaequalis and then remain in an incubation cabin at about 20° C. and 100% relative atmospheric humidity for 1 day. The plants are then placed in a greenhouse at about 21° C. and a relative atmospheric humidity of about 90%.

Data set [3] has as its system apple mildew pathogen Podosphaera leucotricha. As to the kind of experiment: Podosphaera test (apple)/protective. In kind it is in vivo. The settings on record: 240 h, protective, application rate 100 g/ha, evaluation 10 days after inoculation, read-out: efficacy. The procedure:
as §1, with “Podosphaera” for “Sphaerotheca”, “(apple)/protective” for “(cucumber)/protective”, “the apple mildew pathogen Podosphaera leucotricha.” for “Sphaerotheca fuliginea.”

By chromatographic logP is commonly meant a lipophilicity value derived from retention on a column. Lower therefore signals lower lipophilicity. Molecule `CO/N=C(/C(=O)OC)c1c(F)cccc1Oc1ccccc1` [Example 3, methyl (2-fluoro-6-phenoxyphenyl)methoxyiminoacetate] showed a chromatographic logP in “physchem” (pH 2, log P (pH 2)) of 3.24. The pest or weed control at 500 g/ha in data set [1] was not below 98%.

In turn, `CNC(=O)/C(=N/OC)c1c(F)cccc1Oc1ccccc1` [Example 4, 2-(2-fluoro-6-phenoxyphenyl)-2-methoxyimino-N-methylacetamide] had a chromatographic logP in “physchem” (pH 2, log P (pH 2)) of 2.56. Moreover, the pest or weed control at 500 g/ha in data set [1] was not below 98%.

For `CNC(=O)/C(=N/OC)c1ccc(F)cc1Oc1ncnc(Oc2ccccc2Cl)c1F` [Example 7, N-methyl-2-{2-[6-(2-chlorophenoxy)-5-fluoropyrimidin-4-yloxy]-4-fluorophenyl}-2-methoxyiminoacetamide], in the data set “physchem” (pH 2, log P (pH 2)), the chromatographic logP worked out at 3.14. The pest or weed control at 100 g/ha in the data set on Phytophthora infestans was not below 86%; in the data set with Sphaerotheca fuliginea, not below 98%; in data set [2], not below 97%.

With `CNC(=O)/C(=N/OC)c1c(F)cccc1COc1ccccc1C` [Example 9, N-methyl-2-(2-fluoro-6-o-tolyloxymethylphenyl)-2-methoxyiminoacetamide], the pest or weed control at 100 g/ha in data set [3] was not below 82%; with Phytophthora infestans, not below 86%; in the data set on Sphaerotheca fuliginea, not below 98%; in data set [2], not below 97%. Moreover, the chromatographic logP in “physchem” (pH 2, log P (pH 2)) worked out at 3.03.

`CNC(=O)/C(=N/OC)c1ccc(F)cc1Oc1ncnc(Oc2cccc(Cl)c2C)c1F` [Example 10] displayed a chromatographic logP in “physchem” (logP) of 3.62. The pest or weed control at 500 g/ha in data set [1] was not below 98%.

In the case of `CNC(=O)/C(=N/OC)c1ccc(F)cc1Oc1ncnc(Oc2ccccc2C#N)c1F` [Example 11], in the data set “physchem” (logP), the chromatographic logP worked out at 2.68.

Molecule `CNC(=O)/C(=N/OC)c1ccc(F)cc1Oc1nc(C)c(Cl)c(OCC(F)(F)C(F)(F)F)n1` [Example 13] came in with a chromatographic logP in the data set “physchem” (logP) of 3.58.

In the case of `CNC(=O)/C(=N/OC)c1ccc(F)cc1Oc1ncnc(Oc2ccccc2C)c1F` [Example 15], the pest or weed control at 100 g/ha in data set [3] is not below 82%; in the data set with Phytophthora infestans, not below 86%; in the data set with Sphaerotheca fuliginea, not below 98%; in data set [2] it was not below 97%. The molecule also came in with a chromatographic logP in the data set “physchem” (logP) of 3.2.

Consider `CNC(=O)/C(=N/OC)c1ccc(F)cc1Oc1ncnc(Oc2cccc(F)c2)c1F` [Example 17], for which the chromatographic logP in the data set “physchem” (logP) worked out at 3.07.

In the case of `CNC(=O)/C(=N/OC)c1ccc(F)cc1Oc1ncnc(Oc2cccc(C#N)c2)c1F` [Example 18], in the data set “physchem” (logP), the chromatographic logP stood at 2.71.

`CNC(=O)/C(=N/OC)c1ccc(F)cc1Oc1ncnc(Oc2cccc(OC)c2)c1F` [Example 19] had a chromatographic logP in the data set “physchem” (logP) of 2.91.

On to `CNC(=O)/C(=N/OC)c1ccc(F)cc1Oc1ncnc(Oc2ccccc2OC)c1F` [Example 20], for which, in the data set “physchem” (logP), the chromatographic logP worked out at 2.82.

In the data set “physchem” (logP), `CNC(=O)/C(=N/OC)c1ccc(F)cc1Oc1ncnc(Oc2cccc(Cl)c2)c1F` [Example 21] had a chromatographic logP of 3.31.

Turning to `CNC(=O)/C(=N/OC)c1ccc(F)cc1Oc1ncnc(Oc2ccccc2SC)c1F` [Example 23], the chromatographic logP in “physchem” (logP) came out at 3.07.

In turn, `CNC(=O)/C(=N/OC)c1ccc(F)cc1Oc1ncnc(Oc2ccc(SC)cc2)c1F` [Example 24] showed a chromatographic logP in the data set “physchem” (logP) of 3.24.

Regarding `CNC(=O)/C(=N/OC)c1ccc(F)cc1Oc1ncnc(Oc2cc(C)ccc2Cl)c1F` [Example 25], the chromatographic logP in “physchem” (logP) amounted to 3.45.

Turning to `CNC(=O)/C(=N/OC)c1ccc(F)cc1Oc1ncnc(Oc2ccc(F)cc2Cl)c1F` [Example 26], the chromatographic logP in “physchem” (logP) came out at 3.27.

Take `CNC(=O)/C(=N/OC)c1ccc(F)cc1Oc1ncnc(Oc2ccccc2OC(C)C)c1F` [Example 27]: in the data set “physchem” (logP), the chromatographic logP stood at 3.32.

Regarding `CNC(=O)/C(=N/OC)c1ccc(F)cc1Oc1ncnc(Oc2ccc(SC)c(C)c2)c1F` [Example 28], the chromatographic logP in the data set “physchem” (logP) turned out to be 3.54.

As to `CNC(=O)/C(=N/OC)c1ccc(F)cc1Oc1ncnc(Oc2ccc(OC)cc2Cl)c1F` [Example 29], the chromatographic logP in the data set “physchem” (logP) is 3.2.

Molecule `CNC(=O)/C(=N/OC)c1ccc(F)cc1Oc1ncnc(Oc2cccc(C(F)(F)F)c2)c1F` [Example 30] displayed a chromatographic logP in the data set “physchem” (logP) of 3.46.

In “physchem” (logP), `CNC(=O)/C(=N/OC)c1ccc(F)cc1Oc1ncnc(Oc2ccc(C(F)(F)F)cc2)c1F` [Example 32] displayed a chromatographic logP of 3.49.

As to `CNC(=O)/C(=N/OC)c1ccc(F)cc1Oc1ncnc(Oc2cccc(Cl)c2Cl)c1F` [Example 33], the pest or weed control at 100 g/ha in data set [3] is not below 82%; in the data set with Phytophthora infestans it was not below 86%; in the data set with Sphaerotheca fuliginea it was not below 98%; in data set [2] it was not below 97%. This molecule also displayed a chromatographic logP in the data set “physchem” (logP) of 3.53.

`CNC(=O)/C(=N/OC)c1ccc(F)cc1Oc1ncnc(Oc2ccccc2Br)c1F` [Example 34]: in “physchem” (logP), the chromatographic logP turned out to be 3.22.

Turning to `CNC(=O)/C(=N/OC)c1ccc(F)cc1Oc1ncnc(Oc2ccccc2OC(F)(F)F)c1F` [Example 35], the pest or weed control at 100 g/ha was not below 82% in data set [3], not below 98% in the data set on Sphaerotheca fuliginea and not below 97% in data set [2]. Further, in “physchem” (logP), the chromatographic logP was found to be 3.27.

For `CNC(=O)/C(=N/OC)c1ccc(F)cc1Oc1ncnc(Oc2cccc(OC(F)(F)F)c2)c1F` [Example 36], the chromatographic logP in the data set “physchem” (logP) was determined as 3.46.

For the molecule `CNC(=O)/C(=N/OC)c1ccc(F)cc1Oc1ncnc(Oc2ccc(Br)cc2C)c1F` [Example 37], the chromatographic logP in “physchem” (logP) amounted to 3.57.

In the case of `CNC(=O)/C(=N/OC)c1ccc(F)cc1Oc1ncnc(Oc2ccc(OC(F)(F)F)cc2C)c1F` [Example 38], the chromatographic logP in “physchem” (logP) was 3.71.

In “physchem” (logP), `CNC(=O)/C(=N/OC)c1ccc(F)cc1Oc1ncnc(Oc2ccc(SC(F)(F)F)cc2)c1F` [Example 39] registered a chromatographic logP of 3.75. This chromatographic logP and that of the molecule before are within 0.2 log units of each other.

Consider `CO/N=C(/C(=O)OC)c1c(F)cccc1CO/N=C1\CCc2ccc(OC)cc21` [Example 49], for which the chromatographic logP in the data set “physchem” (logP) is 3.65.

On to `CNC(=O)/C(=N/OC)c1c(F)cccc1CO/N=C1\CCc2ccc(OC)cc21` [Example 52], for which, in the data set “physchem” (logP), the chromatographic logP was 3.08.

Turning to `CO/N=C(/C(=O)OC)c1c(F)cccc1Oc1cc(C(F)(F)F)ncn1` [Example 53], the chromatographic logP in “physchem” (logP) amounted to 2.91.

For `CO/N=C(\C(C)=N\OCc1cccc(F)c1/C(=N\OC)C(=O)OC)c1ccc(F)cc1F` [Example 54], the chromatographic logP in the data set “physchem” (logP) is 4.13.

Regarding `CNC(=O)/C(=N/OC)c1c(F)cccc1CO/N=C(C)/C(=N\OC)c1ccc(F)cc1F` [Example 55], the chromatographic logP in “physchem” (logP) was 3.57.

`CNC(=O)/C(=N/OC)c1c(F)cccc1CO/N=C(C)/C(=N\OC)c1ccc(C)cc1` [Example 58]: the chromatographic logP in the data set “physchem” (logP) was determined as 3.71. This chromatographic logP and that of the molecule before are within 0.2 log units of each other.

In “physchem” (logP), `CNC(=O)/C(=N/OC)c1c(F)cccc1CO/N=C(C)/C(=N\OC)c1ccc(F)cc1` [Example 59] gave a chromatographic logP of 3.5.

With `CO/N=C(/C(=O)OC)c1c(O)cccc1F` [Example (II-1), methyl (2-fluoro-6-hydroxyphenyl)methoxyiminoacetate], in “physchem” (pH 2, log P (pH 2)), the chromatographic logP was found to be 1.67.

`CNC(=O)/C(=N/OC)c1c(O)cccc1F` [Example (II-2), 2-(2-fluoro-6-hydroxyphenyl)-2-methoxyimino-N-methylacetamide] came in with a chromatographic logP in the data set “physchem” (pH 2, log P (pH 2)) of 1.18.

Turning to `CO/N=C(/C(=O)OC)c1ccc(F)cc1O` [Example (II-3), methyl (4-fluoro-2-hydroxyphenyl)methoxyiminoacetate], the chromatographic logP in the data set “physchem” (pH 2, log P (pH 2)) amounted to 2.62.

`CNC(=O)/C(=N/OC)c1ccc(F)cc1O` [Example (II-4), 2-(4-fluoro-2-hydroxyphenyl)-2-methoxyimino-N-methylacetamide] displayed a chromatographic logP in “physchem” (pH 2, log P (pH 2)) of 1.56.

`COC(=O)C(=O)c1c(F)cccc1OC1CCCCO1` (centres unmarked) [Example (XIII-1), methyl [2-fluoro-6-(tetrahydropyran-2-yloxy)phenyl]oxoacetate]: the chromatographic logP in “physchem” (pH 2, log P (pH 2)) was found to be 2.78.

Turning to `COC(=O)C(=O)c1ccc(F)cc1O` [Example (XIV-1), methyl (4-fluoro-2-hydroxyphenyl)oxo-acetate], the chromatographic logP in the data set “physchem” (pH 2, log P (pH 2)) amounted to 2.1.

In the case of `COC(=O)C(=O)c1c(C)cccc1F` [Example (XIX-1), methyl (2-fluoro-6-methylphenyl)oxoacetate], the chromatographic logP in the data set “physchem” (pH 2, log P (pH 2)) turned out to be 2.44.

In turn, `CO/N=C(/C(=O)OC)c1c(C)cccc1F` [Example (XVIII-1), methyl (2-fluoro-6-methylphenyl)methoxyiminoacetate] registered a chromatographic logP in the data set “physchem” (pH 2, log P (pH 2)) of 2.43.

The record behind these values is US20050124498A1, “Halobenzyl substituted phenylaceto esters and amides and use thereof for prevention of harmful organisms” (priority 2002, published 2005).
